Laboratory results from ChEMBL document CHEMBL3244064, “Conformational effects on the activity of drugs. 7. Synthesis and pharmacological properties of 2-(p-nitrophenyl)-substituted morpholines” (J Med Chem, 1979).
Calls of active or inactive are those of the source. The rule behind the calls is not given here.

Experiments:
Assay type in all cases: protein assay
[1] = biological target: T1, Adrenergic receptor alpha (Rattus norvegicus) (UniProt P15823+P23944+P43140+P22086+P19328+P22909); assay: Stimulation of alpha-adrenergic receptor in ICEM:CER SPF Caw rat vas deferens assessed as muscle contraction after 2 to 3 mins in presence of alpha-adrenoceptor blocker dihydroergotamine
[2] = biological target: T1, Adrenergic receptor alpha (Rattus norvegicus); assay: Stimulation of alpha-adrenergic receptor in ICEM:CER SPF Caw rat vas deferens assessed as muscle contraction after 2 to 3 mins relative to INPEA
[3] = biological target: T1, Adrenergic receptor alpha (Rattus norvegicus); assay: Stimulation of alpha-adrenergic receptor in ICEM:CER SPF Caw rat vas deferens assessed as potentiation of norepinephrine response at 50 uM after 2 to 3 mins
[4] = biological target: T1, Adrenergic receptor alpha (Rattus norvegicus); assay: Stimulation of alpha-adrenergic receptor in ICEM:CER SPF Caw rat vas deferens assessed as muscle contraction after 2 to 3 mins relative to norepinephrine
[5] = biological target: T1, Adrenergic receptor alpha (Rattus norvegicus); assay: Stimulation of alpha-adrenergic receptor in reserpine-pretreated ICEM:CER SPF Caw rat vas deferens assessed as muscle contraction after 2 to 3 mins

| SMILES | Activity [1] | Ratio [2] | Activity [3] | Ratio [4] | Activity [5] |
| --- | --- | --- | --- | --- | --- |
| O=[N+]([O-])c1ccc(C2CNCCO2)cc1 (stereo not drawn) | inactive | 1.4 | 203% | 0.0063 |  |
| CNCC(O)c1ccc([N+](=O)[O-])cc1 (stereo not drawn) | inactive | 1.04 | 253% | 0.0047 |  |
| CN1CCOC(c2ccc([N+](=O)[O-])cc2)C1 (stereo not drawn) | inactive | 0.31 | 192% | 0.0014 |  |
| CC(C)N1CCOC(c2ccc([N+](=O)[O-])cc2)C1 (stereo not drawn) | inactive | 1 | 223% | 0.0045 | Active |
| NCC(O)c1ccc([N+](=O)[O-])cc1 (stereo not drawn) | inactive | 1.66 | 179% | 0.0075 |  |
| CC(C)(C)N1CCOC(c2ccc([N+](=O)[O-])cc2)C1 (stereo not drawn) | inactive | 0.64 | 169% | 0.0029 |  |
| CC(C)NCC(O)c1ccc([N+](=O)[O-])cc1 (stereo not drawn) | inactive |  | 209% | 0.0045 | Active |
| CC(C)(C)NCC(O)c1ccc([N+](=O)[O-])cc1 (stereo not drawn) | inactive | 0.27 | 127% | 0.0012 |  |
